Laboratory results: patent publication US8071548B2, “Method of reducing injury to mammalian cells” (Nono, Inc., priority 2002, dated 2011)

Columns and labels:
nNOS = experiment: NMDA-evoked cGMP formation (surrogate of NO production by nNOS); type: cell-based, mouse; details: 50 nM, pre-treated 1 h, NMDA 0-1000 μM
Procedure: cGMP determinations were performed 10 min after challenging the cultures with NMDA, kainate, or high-K (FIGS. 4c-e) with the Biotrak cGMP enzyme immunoassay system according to the kit manufacturer's instructions (Amersham). Staining for NADPH diaphorase (FIG. 4b) was done as described in ref 12.

[1] = Physiological variables in pre-treatment MCAO study; type: in vivo, Sprague-Dawley rats
Procedure: (§1) Next, I examined whether pretreatment with Tat-peptides would reduce stroke damage. Experiments were carried out in adult male Sprague-Dawley rats subjected to transient middle cerebral artery occlusion (MCAO) for 90 minutes by the intraluminal suture method (36,37). Animals were fasted overnight and injected with atropine sulfate (0.5 mg/kg IP). After 10 minutes anesthesia was induced with 3.5% halothane in a mixture of nitrous oxide and oxygen (Vol. 2:1) and maintained with 0.8% halothane. Rats were orally intubated, mechanically ventilated, and paralyzed with pancuronium bromide (0.6 mg/kg IV). Body temperature was maintained at 36.5-37.5° C. with a heating lamp. Polyethylene catheters in the femoral artery and vein were used to continuously record blood pressure and to sample blood for gas and pH measurements. […] This produces an extensive infarction encompassing the cerebral cortex and basal ganglia. […] Physiological parameters (body temperature, blood pressure, blood gases) were monitored and maintained throughout the experiment (Table 1). All experimental manipulations and analyses of data were performed by individuals blinded to the treatment groups. The extent of cerebral infarction was measured 24 h after MCAO onset (FIG. 7C inset). The postural reflex test (38), and the forelimb placing test (39) were used to grade neurological function on a scale of 0 to 12 (normal=0; worst=12) during MCAO (at 50 minutes) and 24 h thereafter.

[2] = tested on: cultured cortical neurons; experiment: NMDA excitotoxicity in cultured cortical neurons (propidium iodide fluorescence); type: cell-based, mouse
NMDARs = experiment: NMDA-evoked 45Ca2+ accumulation in cortical cultures; type: cell-based, mouse; details: 50 nM pre-treatment
Procedure: Excitotoxicity and Ca^2+ accumulation measurements were performed identically to the methods described and validated in refs. 4 and 14. I used measurements of propidium iodide fluorescence as an index of cell death, and of radiolabelled ^45Ca^2+ accumulation for Ca^2+ load determinations in sister cultures on the same day. Experimental solutions were as previously described (4). Ca^2+ influx was pharmacologically channeled through distinct pathways as follows: To NMDARs by applying NMDA (×60 min) in the presence of both CNQX (Research Biochemicals Inc.) and nimodipine (Miles Pharmaceuticals), to non-NMDARs by applying kainic acid (×60 min or 24 h) in the presence of both MK-801 (RBI) and nimodipine, and to VSCCs using 50 mM K^+ solution (×60 min) containing 10 mM Ca^2+ and S(−)-Bay K 8644, an L-type channel agonist (300-500 nM; RBI), MK-801 and CNQX. Antagonist concentrations were (in μM): MK-801 10, CNQX 10, nimodipine 2. All three antagonists were added after the 60 min agonist applications for the remainder of all experiments (24 h). A validation of this approach in isolating Ca^2+ influx to the desired pathway in these cortical cultures has been published (4).

[3] = tested on: transient unilateral middle cerebral artery occlusion
[4] = tested on: transient middle cerebral artery occlusion; experiment: Transient MCAO, post-treatment study (1 h after MCAO onset); type: in vivo, Sprague-Dawley rats; details: 3 nMole/g i.v. 1 h after MCAO onset
Procedure: as §1
Next, I examined whether treatment with Tat-NR2B9c could attenuate ischemic neuronal damage in-vivo when given after stroke onset. […] Infarction volume and neurological outcome measurements were performed at times identical to the pre-treatment study. Body temperature, blood pressure and blood gases were monitored throughout the 24 h experiment and maintained equivalent between groups (Table 2).

## Tat-KLSSIESDV [Tat-NR2B9c]
nNOS
  suppression of NMDA-evoked increase in cGMP (average): 39.5±6.7%
[1]; After MCAo (15 min)
  Body Temperature: 36.8 ± 0.12 °C
[1]; After MCAo (24 hr)
  Body Temperature: 36.5 ± 0.14 °C
  Body weight: 250 ± 5 g
[1]; Before MCAo(15 min)
  Body Temperature: 36.7 ± 0.20 °C
  MABP: 90 ± 6 mmHg
[1]; Before MCAo(30 min)
  Blood gases PCO2: 38.1 ± 1.4 mmHg
  Blood gases PH: 7.44 ± 0.02
  Blood gases PO2: 123 ± 8 mmHg
  Body Temperature: 36.7 ± 0.19 °C
  MABP: 76 ± 5 mmHg
[1]; Before MCAo(45 min)
  Body Temperature: 36.6 ± 0.21 °C
  MABP: 120 ± 9 mmHg
[1]; Before anesthesia
  Body weight: 271 ± 5 g
[1]; During MCAo (5 min)
  Blood gases PCO2: 41.0 ± 1.3 mmHg
  Blood gases PH: 7.44 ± 0.02
  Blood gases PO2: 112 ± 6 mmHg
  Body Temperature: 36.7 ± 0.16 °C
  MABP: 112 ± 9 mmHg
[1]; During MCAo (15 min)
  Body Temperature: 36.8 ± 0.23 °C
  MABP: 98 ± 6 mmHg
[2]; 50 nM applied after 1 h NMDA challenge (0-100 μM), cell death at 20 h
  vulnerability of neurons to NMDA toxicity, post-treatment: significantly reduced
[2]; 50 nM for 1 h, then NMDA 0-100 μM 1 h, 20 h observation
  NMDA-evoked cell death, pre-treatment: significantly reduced
NMDARs
  uptake of 45Ca2+ produced by applying NMDA: did not alter
[3]; 3 nmoles/g i.v. 3 hours after onset of ischemia
  return to pre-surgery weight for 2 consecutive days, earlier than saline or NR2B-AA treated rats: about 1 week
[3]; 6 days following MCA occlusion
  Mean latency to retreat from the open to the closed arm in the elevated plus maze: significant difference from Tat-NR2B-AA
[3]; MCAO 90 min
  Mean (SE) core temperature during surgery: 37.1 (∀0.1)
  Mean (SE) core temperature subsequent to surgery: 37.9 (∀0.2)
  Mean (SE) systolic blood pressure during surgery: 112 (∀6.3)
  Mean (SE) systolic blood pressure prior to surgery: 106 (∀4.3)
  Mean (SE) systolic blood pressure subsequent to surgery: 122 (∀5.5)
[3]; MCAO 90 min, drug i.v. 3 hours after onset of ischemia
  Mean (SE) core temperature prior to surgery: 36.7 (∀0.2)
[3]; a number of days including day 56 post-injury
  individual weight post-surgery versus controls: significantly heavier
[3]; approximately 2 months post-injury
  Morris water maze acquisition phase: No significant group differences
[3]; approximately 2 months post-injury, vs combined control
  Morris water maze memory (time in the target quadrant): significantly reduced memory deficits
[3]; days 36-45
  Barnes maze escape latencies, acquisition phase: consistently shorter mean escape latencies
[3]; days 36-45, relative to controls
  Barnes maze retest (memory): performed significantly better
[3]; difference between day 5 and day 15
  Habituation score for grid crosses in the open field arena: significant difference from Tat-NR2B-AA and Saline
[3]; post-surgery days 5, 9 and 14
  latency in horizontal ladder task: significantly reduced latencies
  number of paw slips in horizontal ladder task: significantly fewer paw slips
[3]; relative to TAT-NR2B-AA and saline
  total infarct area and volume at 62 days post-surgery: reduced total infarct area and volume
[3]; treated at 3 hours post-MCAO
  Mean sensory-motor score over 56 days post-MCAO: significant long-term functional neuroprotection
[4]
  24 h neurological scores: significant improvement
[4]; 24 h
  reduction in cortical infarction volume: 86.97±4.38%
[4]; 24 h, vs controls
  reduction of volume of total cerebral infarction: 67.0±3.75%
